# Data as given in US20230143932A1, “PIN6 PROTEINS FOR THE FORMATION OF NODULE-LIKE STRUCTURES” (University of Freiburg, priority 2021, published 2023).
# Assays:
# Assay in all cases: Root organogenesis response to transient auxin treatment (pseudonodule count)
# Type in all cases: in vivo
# [1] = test system: Lotus japonicus ecotype Gifu; conditions: 50 μM for 1 hour, counted 7 days after treatment
# Method: (§1) In order to investigate the potential impact of auxin and cytokinin treatment on root organogenesis, seeds of the Medicago truncatula cultivar Jester, the Lotus japonicus ecotype Gifu, and the Hordeum vulgare cultivar Golden Promise were sterilized, and then seedlings were grown on FP media (without Nitrogen and Phosphorus) for 3, 7, and 2 days, respectively. Grown plants were transformed to FP media with either control treatment, 50 μM of 2,4-Dichlorophenoxyacetic acid (synthetic auxin), 100 nM of 6-Benzylaminopurine (synthetic cytokinin) or both of the hormones for 1 hour before moving to FP media. FIG. 1A-1C show the number of pseudonodules/Arrested Lateral roots (ALR) counted 7 days after control treatment, treatment with 2,4-Dichlorophenoxyacetic acid (2,4-D), 6-Benzylaminopurine (BAP), or both.
# [2] = test system: Hordeum vulgare cultivar Golden Promise; conditions: Hordeum vulgare (barley) roots, 50 μM for 1 hour, counted 7 days after treatment
# Method: as §1
# [3] = test system: Medicago truncatula cultivar Jester; conditions: 50 μM for 1 hour, counted 7 days after treatment
# Method: as §1
structure (smiles),measurement,setting,value
"O=C(O)COc1ccc(Cl)cc1Cl [2,4-Dichlorophenoxyacetic acid]",pseudonodule formation compared with control plants,[1],increased pseudonodule formation
same,pseudonodule formation compared with control plants,[2],increased pseudonodule formation
same,pseudonodule formation compared with control plants,[2]; listed as auxin,formation of pseudonodules
same,pseudonodule formation compared with control plants,[3],increased pseudonodule formation
